Values after ≈ are worked out from the molar mass of the structure shown. Like-named read-outs stand apart in the source and are kept apart here. Positions of bridges follow the written chain, without caps; N, C: chain ends. Non-standard residues stand in square brackets, D forms with d. Residues, ends and D or L forms follow the SMILES beside them. Triazole bridges read from a SMILES are 1,4-linked. *: point of attachment. Benzoyl(3,5-(OH)2) = O=C(c1cc(O)cc(O)c1)*; Lys(N3) = [N-]=[N+]=NCCCC[C@H](N)C(=O)O; dPhe(4-F) = N[C@H](Cc1ccc(F)cc1)C(=O)O; NMeH = CN[C@@H](Cc1c[nH]cn1)C(=O)O; NMeR = CN[C@@H](CCCNC(=N)N)C(=O)O; Aad = N[C@@H](CCCC(=O)O)C(=O)O; Nle = CCCC[C@H](N)C(=O)O; Pra = C#CC[C@H](N)C(=O)O Some results are limits rather than exact numbers.

For orientation: EC50 means the midpoint of the concentration-response curve. In general, IC50 refers to the midpoint of a concentration-inhibition curve. What is called solubility is the concentration that dissolves in the medium under given conditions.

A short description of data set [1]: In vivo topical administration tissue distribution study, minipig. As to conditions: topical 5 mg/mL BID. The method, then:
Animals were acclimated to the study environment for a minimum of 1 week. […] Examinations included, but were not limited to, the skin and external ears, eyes, and abdomen, neurological behavior, and general body condition.
Treatment was administered twice daily (BID) with approximately 6-8 hours between each BID dose, with tissue collection one hour after the last dose. Tissues and blood collected include plasma, aqueous humor, iris/ciliary body, vitreous humor, eye cup containing the retinal pigment epithelium, choroid, sclera, cornea, retina, optic nerve, and brain.
Blood (3 mL) was collected IV or ICAR for terminal collections and placed into K2EDTA tubes for plasma acquisition. […] Blood samples were stored on wet ice for up to 30 minutes prior to plasma processing.
Following euthanasia, eyes were enucleated and rinsed twice with fresh ice-cold PBS. Aqueous humor was removed via a 27 or 30 G syringe, weighed in polypropylene screw cap tubes, and snap frozen by immersing in liquid nitrogen. Eyes were dissected while frozen. All tissues were placed into individual vials, weighed, and snap frozen. The brain was collected and weighed. The hypothalamus, hippocampus and remaining brain was then dissected and weighed. 100-200 mg of each section was placed in pre-weighed polypropylene tubes, reweighed, and snap frozen. The remaining tissue was discarded. All tissues were stored frozen at −80° C. on dry ice.
The observed distribution pattern was consistent with that observed in the rat study. […] As also shown in FIG. 14, all three peptides were detected in the CNS of the animals, with no behavioral or metabolic changes noted in these animals despite the significant exposure. The foregoing results therefor confirm that the peptides disclosed herein can be delivered topically for retinal indications.

The next data set deals with T1, human recombinant MC5R (Homo sapiens, UniProt P33032).
T1 construct: host or cells: CHO-K1/Ga15
T1 sequence (P33032 whole entry): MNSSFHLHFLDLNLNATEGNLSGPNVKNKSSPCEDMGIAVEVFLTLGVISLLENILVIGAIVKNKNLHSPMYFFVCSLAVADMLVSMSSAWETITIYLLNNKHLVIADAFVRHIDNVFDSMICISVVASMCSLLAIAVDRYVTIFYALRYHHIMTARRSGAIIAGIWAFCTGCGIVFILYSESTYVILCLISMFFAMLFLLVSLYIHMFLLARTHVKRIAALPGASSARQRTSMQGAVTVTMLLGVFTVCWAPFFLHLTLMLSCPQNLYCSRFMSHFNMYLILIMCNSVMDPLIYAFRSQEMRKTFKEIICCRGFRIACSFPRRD
The experiment in a line: Ca2+ signalling functional assay, MC5R stable cell line (CHO-K1/Ga15). The class given is cell-based.

A further data set addresses T2, human recombinant MC1R (Homo sapiens, UniProt Q01726).
T2 construct: host or cells: CHO-K1
The experiment in a line: cyclic AMP (cAMP) functional assay, MC1R stable cell line (CHO-K1).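 For all read-outs here: cells with test compound for 60 min at room temperature in buffer containing IBMX, then cAMP quantified by Eu-cAMP tracer and ULight anti-cAMP detection.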 It counts as cell-based. As to conditions: for IC50: cAMP functional assay.

Data set [2] in a line: Thermodynamic solubility study in water. The class given is physicochemical. The method, then:
The study was conducted in water. Water was added into compound powder to make a 10 mg/mL solution. Sample tubes were shaken at the vibrator for 1 hour (1000 rpm) and then equilibrated overnight at room temperature. Samples were centrifuged at 12000 rpm for 10 min to precipitate undissolved particles. Supernatants were transferred from tubes to a new plate. An aliquot of the supernatant after centrifugation was taken from each well, then analyzed by LC-MS/MS. The concentration of the supernatants was quantified by a standard curve.

A further data set concerns the target T3, human recombinant MC4R (Homo sapiens, UniProt P32245).
T3 construct: host or cells: CHO-K1/Gα15
Briefly: Ca2+ signalling functional assay, MC4R stable cell line (CHO-K1/Gα15). The settings on record: for IC50: calcium flux functional assay. The class given is cell-based. In general terms: Calcium assays in cells follow changes in intracellular calcium, usually with a dye or a luminescent sensor.

For data set [3] the following is noted: rabbit.
Description: To evaluate the effects of the peptide formulations following topical administration and subconjunctival injection a study in rabbits was undertaken. Animals were acclimated to the study and, upon completion of the acclimation period, each animal was physically examined for determination of suitability for study participation. Animals determined to be in good health were randomized into study groups to achieve averaged mean body weight in each group. (N=24; 3 animals per study group) Animals will be uniquely identified by corresponding cage card number and ear tag.
For topical ocular dosing the designated peptide formulations (35 L) were administered to the eye of each animal using a calibrated pipette. With the animal manually restrained, the upper eyelid of the eye was gently elevated to expose the cornea. Treatment was then be applied to the cornea without contacting the eye with the pipette tip. One topical drop was applied per eye for four days. Tissue collection (aqueous humor) occurred 30 minutes after last dose.
A veterinary ophthalmologist performed complete ocular examinations using a slit lamp biomicroscope and indirect ophthalmoscope to evaluate ocular surface morphology and anterior and posterior segment inflammation on all animals prior to injection to serve as a baseline for enrollment into the study as well as on specific study days. Animals were not tranquilized for the examinations.
At least 1.0 mL of whole blood was drawn from the marginal ear vein or cardiac puncture (terminal bleed only) into K2EDTA tubes for plasma collection. After collection, the tubes were gently mixed by inverting the tubes 5-8 times. Blood samples were stored on wet ice prior to plasma processing. The samples were centrifuged at 4° C. for 10 minutes at 2000 g in a swinging bucket refrigerated centrifuge. Within 20 minutes of the blood collection time, the clear plasma was transferred to prelabelled polypropylene tubes, snap frozen, and stored frozen at approximately −80° C.
Following euthanasia, eyes were enucleated and marked at the 12:00 position. Aqueous humor was removed via a 27 or 30 gauge syringe following a 10-15 second rinse with PBS and blot with Kimwipe, and snap frozen by immersing in liquid nitrogen. The whole globe was then snap frozen in liquid nitrogen and stored at −80° C. to be held for potential dissection. All samples were placed into individual vials and weighed. The plasma and aqueous humor were collected.
The peptides were evaluated for their ocular tolerability and pharmacokinetics following repeated (QID×4 days) topical instillation or a single subconjunctival injection in rabbits. The study examined penetration into the anterior chamber and concentrations in the plasma by measuring at a single time point.
The next data set addresses T4, human recombinant MC3R (Homo sapiens, UniProt P41968).
T4 construct: host or cells: CHO-K1/Gα15
The experiment in a line: Ca2+ signalling functional assay, MC3R stable cell line (CHO-K1/Gα15). As to conditions: calcium flux functional assay. The class given is cell-based.

Another data set can be described thus: in vivo. As to conditions: rabbit, topical or ocular, 3 mg/ml solution, 35 L per eye, Concentrations (ng/mL) in Rabbit Aqueous Humor.

T2 sequence (Q01726 whole entry): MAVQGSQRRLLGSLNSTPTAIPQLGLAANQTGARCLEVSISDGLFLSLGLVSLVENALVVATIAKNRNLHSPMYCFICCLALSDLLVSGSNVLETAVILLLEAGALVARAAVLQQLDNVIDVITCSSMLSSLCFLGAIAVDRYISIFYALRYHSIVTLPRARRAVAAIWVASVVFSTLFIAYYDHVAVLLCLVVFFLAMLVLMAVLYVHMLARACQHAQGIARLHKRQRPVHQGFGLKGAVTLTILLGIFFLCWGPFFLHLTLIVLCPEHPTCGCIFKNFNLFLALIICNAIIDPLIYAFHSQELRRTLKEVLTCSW
T3 sequence (P32245 whole entry): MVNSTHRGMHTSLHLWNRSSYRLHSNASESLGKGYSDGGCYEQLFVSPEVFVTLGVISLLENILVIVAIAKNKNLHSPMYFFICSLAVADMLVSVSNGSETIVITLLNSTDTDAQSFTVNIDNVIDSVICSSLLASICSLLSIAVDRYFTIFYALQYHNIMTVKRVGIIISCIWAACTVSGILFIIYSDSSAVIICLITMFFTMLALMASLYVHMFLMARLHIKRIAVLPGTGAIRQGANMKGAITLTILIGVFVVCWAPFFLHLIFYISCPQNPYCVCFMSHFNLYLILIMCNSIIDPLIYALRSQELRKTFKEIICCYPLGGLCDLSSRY
T4 sequence (P41968 whole entry): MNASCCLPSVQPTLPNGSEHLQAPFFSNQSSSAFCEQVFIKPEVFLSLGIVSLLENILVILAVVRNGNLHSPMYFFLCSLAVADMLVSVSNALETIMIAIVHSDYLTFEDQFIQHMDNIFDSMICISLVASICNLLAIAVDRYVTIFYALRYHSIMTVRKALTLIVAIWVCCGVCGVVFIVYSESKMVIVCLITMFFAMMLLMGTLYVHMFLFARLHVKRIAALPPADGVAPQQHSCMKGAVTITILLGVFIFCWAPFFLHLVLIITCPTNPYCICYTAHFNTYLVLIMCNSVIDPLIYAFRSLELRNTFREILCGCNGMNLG
Protocol for human recombinant MC1R: The cyclic AMP (cAMP) functional assay was performed on a human recombinant MC1R stable cell line (CHO-K1, GenScript). The cells were cultured at 37° C. and 5% CO2 with culture medium (90% Ham's F-12K (Kaighn's)+10% FBS+400 μg/mL G418). […] Then, 100 nL of compounds were transferred to the assay plate by the Echo machine. Cells were washed with PBS and then detached by incubation with 0.05% (w/v) Trypsin EDTA at 37° C. for 2 to 5 mins. Cells were collected with stimulation buffer (1×HBSS with 5 mM HEPES+0.2 mM IBMX+0.1% BSA) and 10 ul of cells (the density of 2,500 cells/well) solution was transferred to assay plate, centrifuged at 600 rpm for 3 min and then incubated with compounds at room temperature for 60 min. After that, 5 μL 4×Eu-cAMP tracer solution and 5 μL 4×ULight™-anti-cAMP solution was added into the cells, centrifuged at 600 rpm for 3 min and incubated for 60 min. The cAMP signal was detected with Envision® Multimode Plate Reader (PerkinElmer).
Protocol for human recombinant MC3R: The Ca^2+ signalling functional assay was performed on a human recombinant MC3R stable cell line (CHO-K1/Gα15, GenScript). The cells were cultured at 37° C. and 5% CO2 with culture medium (90% Ham's F-12K (Kaighn's)+10% FBS+200 μg/mL Zeocin+100 μg/mL Hygromycin B). Cells were washed with PBS and then detached by incubation with 0.05% (w/v) Trypsin EDTA at 37° C. for 2-5 mins. Detached cells were suspended in Ham's F-12K (Kaighn's) (containing 10% FBS) and a 50 μL cell suspension was seeded into each well of a 384-well assay plate at a density of 10,000 cells/well. Cells were allowed to settle overnight at 37° C., 5% CO2. […] The compounds and reference compound ACTH were diluted in 4 folds starting from 50 uM. Then, 500 nL of compounds were transferred to the compound plate by the Echo machine. 30 uL assay buffer was added into the compounds plate and then shaken for 20-40 minutes. The plates were then placed on the FLIPR Tetra High-Throughput Cellular Screening System (FLIPR®, Molecular Devices) and 15 μL of the compound was added to each well, then calcium flux signal was measured.
Protocol for human recombinant MC4R: The Ca^2+ signalling functional assay was performed on a human recombinant MC4R stable cell line (CHO-K1/Gα15, GenScript). The cells were cultured at 37° C. and 5% CO2 with culture medium (90% Ham's F-12K (Kaighn's)+10% FBS+8 μg/mL Puromycin+100 μg/mL Hygromycin B). Cells were washed with PBS and then detached by incubation with 0.05% (w/v) Trypsin EDTA at 37° C. for 2-5 mins. Detached cells were suspended in Ham's F-12K (Kaighn's) (containing 10% FBS) and a 50 μL cell suspension was seeded into each well of a 384-well assay plate at a density of 15,000 cells/well. Cells were allowed to settle overnight at 37° C., 5% CO2. The next day, the assay plate was centrifuged and the media was replaced with dye (1×) in assay buffer (containing HBSS, HEPES 20 mM and probenecid 1 mM) and incubated for 1 h at 37° C. […] Then, 100 nL of compounds were transferred to the compound plate by the Echo machine. 30 μL assay buffer was added to the compounds plate and then shaken for 20 to 40 minutes. The plates were placed on the FLIPR and 15 μL of the compound was added to each well, then calcium flux signal was measured.
Protocol for human recombinant MC5R: The Ca^2+ signalling functional assay was performed on a human recombinant MC5R stable cell line (CHO-K1/Ga15, GenScript). The cells were cultured at 37° C. and 5% C02 with culture medium (90% Ham's F-12K (Kaighn's)+10% FBS+400 μg/mL G418+100 μg/mL Hygromycin B). Cells were washed with PBS and then detached by incubation with 0.05% (w/v) Trypsin EDTA at 37° C. for 2 to 5 mins. Detached cells were suspended in Ham's F-12K (Kaighn's) (containing 10% FBS) and a 50 μL cell suspension is seeded into each well of a 384-well assay plate at a density of 15,000 cells/well. Cells were allowed to settle overnight at 37° C., 5% CO2. […] Then, 100 nL of compounds were transferred to the compound plate by the Echo machine. Thirty microliter assay buffer was added to the compounds plate and then shaken for 20-40 minutes. The plates were placed on the FLIPR and 15 μL of the compound was added to each well, then calcium flux signal was measured.

As to `CCCC[C@H](NC(C)=O)C(=O)N[C@H]1CCCCn2cc(nn2)C[C@@H](C(N)=O)NC(=O)[C@H](Cc2c[nH]c3ccccc23)NC(=O)[C@H](CCCNC(=N)N)NC(=O)[C@@H](Cc2ccc(F)cc2)NC(=O)[C@H](Cc2c[nH]cn2)NC1=O` [KR-049, Ac-Nle-[Lys(N3)-His-Dphe(4-F)-Arg-Trp-Pra]-NH2] (Ac-[Nle][Lys(N3)]H[dPhe(4-F)]RW[Pra]-NH2; triazole 2-7), the melanin binding entry in data set [1] (compared with K173 and K174) is on record as “enhanced melanin binding”. In addition, the “scleral and retinal exposure” value in data set [1] (compared with K173 and K174) was “decreased scleral and retinal exposure”. Moreover, in data set [1] (similar to rabbit study), the corneal permeability entry is reported as “enhanced corneal permeability”. The EC50 was 25.2 nM on human recombinant MC5R, 0.019 nM at human recombinant MC1R and 16.1 nM at human recombinant MC4R. Besides, the figures for the IC50 at human recombinant MC5R (calcium flux functional assay) and on human recombinant MC1R were 25.2 nM and 0.019 nM, respectively. In data set [2], this compound had a solubility of 9950 µg/mL (≈ 9.33 mM). The “Topical Ocular Permeability (nM ± SEM)” value in data set [3] is 23.9 ± 10.8 nM.

With `CSCC[C@H](NC(=O)[C@H](CO)NC(=O)[C@H](Cc1ccc(O)cc1)NC(=O)[C@H](CO)NC(C)=O)C(=O)N[C@@H](CCC(=O)O)C(=O)N[C@@H](Cc1c[nH]cn1)C(=O)N(C)[C@@H](Cc1ccccc1)C(=O)N[C@@H](CCCNC(=N)N)C(=O)N[C@@H](Cc1c[nH]c2ccccc12)C(=O)NCC(=O)N[C@@H](CCCCN)C(=O)N1CCC[C@H]1C(=O)N[C@H](C(N)=O)C(C)C` [KR-022, Ac-Ser-Tyr-Ser-Met-Glu-His-(NMe-Phe)-Arg-Trp-Gly-Lys-Pro-Val-NH2], the half-maximal inhibitory concentration (IC50) is more than 200 nM on human recombinant MC1R and more than 50000 nM at human recombinant MC3R.

On to `CCCC[C@H](NC(C)=O)C(=O)N[C@H]1CCCCn2cc(nn2)C[C@@H](C(N)=O)NC(=O)[C@H](Cc2c[nH]c3ccccc23)NC(=O)[C@H](CCCNC(=N)N)N(C)C(=O)[C@@H](Cc2ccccc2)NC(=O)[C@H](Cc2c[nH]cn2)N(C)C1=O` [KR-052, Ac-Nle-[Lys(N3)-NMeHis-DPhe-NMeArg-Trp-Pra]-NH2] (Ac-[Nle][Lys(N3)][NMeH][dF][NMeR]W[Pra]-NH2; triazole 2-7), for which the IC50 on human recombinant MC5R (calcium flux functional assay) is 195 nM; at human recombinant MC1R it was 2.68 nM; on human recombinant MC4R, 122 nM; on human recombinant MC3R, more than 50000 nM.

`CCCC[C@H](NC(=O)c1cc(O)cc(O)c1)C(=O)N[C@H]1CCCCn2cc(nn2)C[C@@H](C(=O)N[C@@H](CCCC(N)=O)C(N)=O)NC(=O)[C@H](Cc2c[nH]c3ccccc23)NC(=O)[C@H](CCCNC(=N)N)NC(=O)[C@@H](Cc2ccc(F)cc2)NC(=O)[C@H](Cc2c[nH]cn2)NC1=O` [KR-071, HyBA-Nle-[Lys(N3)-His-Dphe(4-F)-Arg-Trp-Pra]-Hgln-NH2] ({Benzoyl(3,5-(OH)2)}-[Nle][Lys(N3)]H[dPhe(4-F)]RW[Pra][Aad](NH2)-NH2; triazole 2-7): the EC50 at human recombinant MC5R stood at 73.9 nM; at human recombinant MC1R it was 0.0023 nM; on human recombinant MC4R, 103 nM. The IC50 on human recombinant MC5R (calcium flux functional assay) came out at 73.9 nM; at human recombinant MC1R it was 0.0023 nM. Also, the solubility in data set [2] (Table 8, read-out: Solubility) stood at 6100 µg/mL (≈ 4.68 mM). The level at 0.5 h in “in vivo” worked out at 2.84 ng/mL. In addition, the “Topical Ocular Permeability (nM ± SEM)” value in data set [3] was 2.5 ± 0.2 nM.

Turning to `CCCC[C@H](NC(C)=O)C(=O)N1CCC(=O)NCCN(CC(=O)N[C@@H](Cc2c[nH]c3ccccc23)C(N)=O)C(=O)[C@H](CCCNC(=N)N)NC(=O)[C@@H](Cc2ccccc2)NC(=O)[C@H](Cc2c[nH]cn2)NC(=O)C1` [KR-029, Ac-Nle-cyc(NGlu-His-DPhe-Arg-NDab)-Trp-NH2], the concentration for half-maximal inhibition (IC50) at human recombinant MC5R (calcium flux functional assay) is more than 10000 nM; at human recombinant MC1R, more than 50 nM; at human recombinant MC4R, more than 1000 nM; at human recombinant MC3R, more than 50000 nM.

As to `CCCC[C@H](NC(C)=O)C(=O)N[C@H]1CCCCn2cc(nn2)C[C@@H](C(=O)N[C@@H](CCCCN)C(N)=O)NC(=O)[C@H](Cc2c[nH]c3ccccc23)NC(=O)[C@H](CCCNC(=N)N)NC(=O)[C@@H](Cc2ccc(OC)cc2)NC(=O)[C@H](Cc2c[nH]cn2)NC1=O` [KR-058, Ac-Nle-[Lys(N3)-His-DTyr(Me)-Arg-Trp-Pra]-Lys-NH2] (Ac-[Nle][Lys(N3)]H[dY](Me)RW[Pra]K-NH2; triazole 2-7), the IC50 is 195 nM at human recombinant MC5R (calcium flux functional assay), 2.68 nM on human recombinant MC1R, 122 nM on human recombinant MC4R and more than 50000 nM at human recombinant MC3R.

With `CCCC[C@H](NC(C)=O)C(=O)N[C@H]1CCCCn2cc(nn2)C[C@@H](C(N)=O)NC(=O)[C@H](Cc2c[nH]c3ccccc23)NC(=O)[C@H](CCCNC(=N)N)NC(=O)[C@@H](Cc2ccccc2)NC(=O)[C@H](Cc2cnc[nH]2)NC1=O` [KR-009, Ac-Nle-[Lys(N3)-His-DPhe-Arg-Trp-Pra]-NH2] (Ac-[Nle][Lys(N3)]H[dF]RW[Pra]-NH2; triazole 2-7), the results for the EC50 at human recombinant MC5R and on human recombinant MC4R were 140 nM and 45.7 nM, respectively. Also, on human recombinant MC5R (calcium flux functional assay), the IC50 amounted to 140 nM. The compound further displayed a solubility in data set [2] of more than 5000 µg/mL. Also, the “Topical Ocular Permeability (nM ± SEM)” value in data set [3] turned out to be 1.43 ± 1.01 nM.

`CCCC[C@H](NC(=O)c1cc(O)cc(O)c1)C(=O)N[C@H]1CCCCn2cc(nn2)C[C@@H](C(N)=O)NC(=O)[C@H](Cc2c[nH]c3ccccc23)NC(=O)[C@H](CCCNC(=N)N)NC(=O)[C@@H](Cc2ccccc2)NC(=O)[C@H](Cc2c[nH]cn2)NC1=O` [KR-073, HyBA-Nle-[Lys(N3)-His-DPhe-Arg-Trp-Pra]-NH2] ({Benzoyl(3,5-(OH)2)}-[Nle][Lys(N3)]H[dF]RW[Pra]-NH2; triazole 2-7): the EC50 at human recombinant MC5R came out at 134 nM; at human recombinant MC1R it was 0.0041 nM; on human recombinant MC4R it was 13.9 nM. Also, the IC50 turned out to be 134 nM on human recombinant MC5R (calcium flux functional assay) and 0.0041 nM on human recombinant MC1R. In addition, the solubility in data set [2] (Table 8, read-out: Solubility) worked out at 7690 µg/mL (≈ 6.73 mM). Moreover, the “Topical Ocular Permeability (nM ± SEM)” value in data set [3] was 12.3 ± 3.8 nM.

For the compound `N=C(N)NCCC[C@@H]1NC(=O)[C@H](Cc2ccccc2)NC(=O)[C@H](Cc2c[nH]cn2)NC(=O)[C@H](CCC(=O)O)NC(=O)CSC[C@@H](C(N)=O)NC(=O)[C@H](Cc2c[nH]c3ccccc23)NC1=O` [KR-011, Cyclo(-Ac-Glu-His-Phe-Arg-Trp-Cys)-NH2] ({CH2CO}-EHFRWC-NH2; thioether N-6 (inferred)), at human recombinant MC5R (calcium flux functional assay), the “MC5R IC50” value is “Not fit”. In addition, the IC50 on human recombinant MC3R was more than 50000 nM.

(Values after US20260152527A1, “NOVEL MELANOCORTIN ANALOGS” (priority 2022, published 2026).)
